ChEMBL document CHEMBL1649173, “Single-dose escalation and multiple-dose safety, tolerability, and pharmacokinetics of IDX899, a candidate human immunodeficiency virus type 1 nonnucleoside reverse transcriptase inhibitor, in healthy subjects” (Antimicrob Agents Chemother, 2009)

Tests used:
[1] = Apparent total plasma clearance in fed state healthy human at 200 mg, po administered as single dose; type: ADME, organism-based
Homo sapiens [2] = test: Toxicity in healthy human assessed as incidence of dizziness at 400 mg, po bid and 800 mg, po qd for 7 days; type: organism-based; settings: in vivo, 168 h
[3] = Cmax in fasted state healthy human at 50 mg, po administered as single dose; type: ADME, organism-based; parameters: dose 50 mg, route oral; settings: in vivo
[4] = Tmax in fasted state healthy human at 100 mg, po administered as single dose; type: ADME, organism-based; settings: in vivo
[5] = Tmax in fed state female healthy human at 400 mg, po administered as single dose; type: ADME, organism-based; settings: in vivo
[6] = Apparent total volume of distribution in fasted state healthy human at 50 mg, po administered as single dose; type: ADME, organism-based; settings: in vivo, read-out: Vz/F
[7] = Half life in fed state healthy human at 1200 mg, po administered as single dose; type: ADME, organism-based; settings: in vivo
[8] = Tmax in fasted state healthy human at 400 mg, po administered as single dose; type: ADME, organism-based; settings: in vivo
[9] = Apparent total plasma clearance in fasted state healthy human at 400 mg, po administered as single dose; type: ADME, organism-based
Homo sapiens [10] = test: Toxicity in healthy human assessed as occurrence of nausea at 50 to 1200 mg, po administered as single dose; type: organism-based; settings: in vivo
[11] = Plasma concentration in fed state female healthy human at 400 mg, po administered as single dose after 24 hrs; type: ADME, organism-based
[12] = Trough plasma concentration in healthy human at 800 mg, po qd after 1 day; type: ADME, organism-based; settings: read-out: Cmin
[13] = Apparent total volume of distribution in healthy human at 400 mg, po bid after 7 days; type: ADME, organism-based; settings: in vivo, read-out: Vz/F
[14] = Apparent total plasma clearance in fasted state healthy human at 200 mg, po administered as single dose; type: ADME, organism-based
Homo sapiens [15] = test: Toxicity in healthy human assessed as incidence of adverse events at 50 to 1200 mg, po administered as single dose; type: organism-based; settings: in vivo
[16] = AUC (0 to infinity) in fed state healthy human at 400 mg, po administered as single dose; type: ADME, organism-based; parameters: dose 400 mg, route oral, time infinity; settings: plasma
[17] = AUC (0 to infinity) in fed state healthy human at 200 mg, po administered as single dose; type: ADME, organism-based; parameters: dose 200 mg, route oral, time infinity; settings: plasma
[18] = Cmax in fasted state healthy human at 100 mg, po administered as single dose; type: ADME, organism-based; parameters: dose 100 mg, route oral; settings: in vivo
[19] = Cmax in fasted state healthy human at 400 mg, po administered as single dose; type: ADME, organism-based; parameters: dose 400 mg, route oral; settings: in vivo
[20] = Plasma concentration in fed state healthy human at 800 mg, po administered as single dose after 24 hrs; type: ADME, organism-based
[21] = Plasma concentration in fasted state healthy human at 100 mg, po administered as single dose after 24 hrs; type: ADME, organism-based
[22] = Apparent total volume of distribution in fed state healthy human at 200 mg, po administered as single dose; type: ADME, organism-based; settings: in vivo, read-out: Vz/F
[23] = Half life in fasted state healthy human at 50 mg, po administered as single dose; type: ADME, organism-based; settings: in vivo
[24] = Half life in fed state female healthy human at 400 mg, po administered as single dose; type: ADME, organism-based; settings: in vivo
[25] = Apparent total volume of distribution in fasted state healthy human at 400 mg, po administered as single dose; type: ADME, organism-based; settings: in vivo, read-out: Vz/F
[26] = Cmax in fed state female healthy human at 400 mg, po administered as single dose; type: ADME, organism-based; parameters: dose 400 mg, route oral; settings: in vivo
[27] = Trough plasma concentration in healthy human at 800 mg, po qd after 7 days; type: ADME, organism-based; settings: read-out: Cmin
[28] = Apparent total volume of distribution in fed state female healthy human at 400 mg, po administered as single dose; type: ADME, organism-based; settings: in vivo, read-out: Vz/F
[29] = AUC (0 to infinity) in healthy human at 800 mg, po qd after 1 day; type: ADME, organism-based; parameters: dose 800 mg, time infinity, route oral; settings: plasma
[30] = Cmax in healthy human at 800 mg, po qd after 7 days; type: ADME, organism-based; parameters: dose 800 mg, route oral; settings: in vivo
Homo sapiens [31] = test: Toxicity in healthy human assessed as incidence of adverse events at 400 mg, po bid and 800 mg, po qd for 7 days; type: organism-based; settings: in vivo, 168 h
[32] = Apparent total plasma clearance in fasted state healthy human at 100 mg, po administered as single dose; type: ADME, organism-based
[33] = AUC (0 to infinity) in fed state healthy human at 800 mg, po administered as single dose; type: ADME, organism-based; parameters: dose 800 mg, time infinity, route oral; settings: plasma
[34] = Apparent total volume of distribution in healthy human at 800 mg, po qd after 7 days; type: ADME, organism-based; settings: in vivo, read-out: Vz/F
Homo sapiens [35] = test: Toxicity in healthy human assessed as incidence of abnormal dreams at 400 mg, po bid and 800 mg, po qd for 7 days; type: organism-based; settings: in vivo, 168 h
Homo sapiens [36] = test: Toxicity in healthy human assessed as occurrence of dizziness at 50 to 1200 mg, po administered as single dose; type: organism-based; settings: in vivo
[37] = AUC (0 to infinity) in fed state female healthy human at 400 mg, po administered as single dose; type: ADME, organism-based; parameters: dose 400 mg, time infinity, route oral; settings: plasma
[38] = AUC (0 to infinity) in fasted state healthy human at 50 mg, po administered as single dose; type: ADME, organism-based; parameters: dose 50 mg, route oral, time infinity; settings: plasma
[39] = Apparent total plasma clearance in fed state healthy human at 800 mg, po administered as single dose; type: ADME, organism-based
[40] = Trough plasma concentration in healthy human at 400 mg, po bid after 7 days; type: ADME, organism-based; settings: read-out: Cmin
[41] = Apparent total volume of distribution in healthy human at 800 mg, po qd after 1 day; type: ADME, organism-based; settings: in vivo, read-out: Vz/F
[42] = Tmax in fasted state healthy human at 200 mg, po administered as single dose; type: ADME, organism-based; settings: in vivo
[43] = Tmax in fed state healthy human at 800 mg, po administered as single dose; type: ADME, organism-based; settings: in vivo
[44] = Apparent total volume of distribution in fasted state healthy human at 100 mg, po administered as single dose; type: ADME, organism-based; settings: in vivo, read-out: Vz/F
[45] = Half life in healthy human at 800 mg, po qd after 1 day; type: ADME, organism-based; settings: in vivo
[46] = AUC (0 to infinity) in fasted state healthy human at 200 mg, po administered as single dose; type: ADME, organism-based; parameters: dose 200 mg, time infinity, route oral; settings: plasma
[47] = AUC (0 to infinity) in fasted state healthy human at 100 mg, po administered as single dose; type: ADME, organism-based; parameters: dose 100 mg, time infinity, route oral; settings: plasma
[48] = Tmax in fed state healthy human at 200 mg, po administered as single dose; type: ADME, organism-based; settings: in vivo
[49] = Apparent total plasma clearance in fed state female healthy human at 400 mg, po administered as single dose; type: ADME, organism-based
[50] = Tmax in fasted state healthy human at 50 mg, po administered as single dose; type: ADME, organism-based; settings: in vivo

COP(=O)(c1cc(C)cc(/C=C/C#N)c1)c1c(C(N)=O)[nH]c2ccc(Cl)cc12 (stereo not given)
CL/F [1]: 230 mL/min | Activity (Homo sapiens [2]): 0% | Cmax [3]: 1600 ng/mL | Tmax [4]: 1.5 h | Tmax [5]: 5 h | Vd/F [6]: 53.3 L | half-life [7]: 7.9 h | Tmax [8]: 1.8 h | CL/F [9]: 480 mL/min | Activity (Homo sapiens [10]): 4.1% | concentration at 24 h [11]: 290 ng/mL | concentration at 24 h [12]: 900 ng/mL | Vd/F [13]: 236 L | CL/F [14]: 555 mL/min | Activity (Homo sapiens [15]): 22.4% | AUC(0-inf) [16]: 36000 ng·h/mL | AUC(0-inf) [17]: 16800 ng·h/mL | Cmax [18]: 3000 ng/mL | Cmax [19]: 1100 ng/mL | concentration at 24 h [20]: 540 ng/mL | concentration at 24 h [21]: 90 ng/mL | Vd/F [22]: 201 L | half-life [23]: 6.2 h | half-life [24]: 13.9 h | Vd/F [25]: 606 L | Cmax [26]: 1900 ng/mL | concentration at 168 h [27]: 900 ng/mL | Vd/F [28]: 329 L | AUC(0-inf) [29]: 68000 ng·h/mL | Cmax [30]: 4600 ng/mL | Activity (Homo sapiens [31]): 43.8% | CL/F [32]: 118 mL/min | AUC(0-inf) [33]: 47200 ng·h/mL | Vd/F [34]: 366 L | Activity (Homo sapiens [35]): 6.3% | Activity (Homo sapiens [36]): 2% | AUC(0-inf) [37]: 26500 ng·h/mL | AUC(0-inf) [38]: 8800 ng·h/mL | CL/F [39]: 297 mL/min | concentration at 168 h [40]: 2100 ng/mL | Vd/F [41]: 151 L | Tmax [42]: 1.5 h | Tmax [43]: 6 h | Vd/F [44]: 66.3 L | half-life [45]: 8.3 h | AUC(0-inf) [46]: 7100 ng·h/mL | AUC(0-inf) [47]: 15800 ng·h/mL | Tmax [48]: 7 h | CL/F [49]: 268 mL/min | Tmax [50]: 1.5 h
